Data from patent publication US11661413B2, “Pyrazole compounds or salts thereof, preparation method therefor, herbicidal composition and use thereof” (priority 2015, dated 2023).

Experiments:
Barnyard grass [1] = experiment: weed control effect in transplanted rice field (pot, water application); assay type: in vivo, Echinochloa; details: 500 g a.i./ha, treated at 0.5 leaf stage, 14 days after treatment, naked eye, weed resistant to pyrazosulfuron-ethyl; note: key: 10: completely dead; above 90% growth inhibition rate; above 80% growth inhibition rate; above 70% growth inhibition rate; above 60% growth inhibition rate; above 50% growth inhibition rate; 4: above 30% growth inhibition rate; above 30% growth inhibition rate; above 20% growth inhibition rate; above 1-10% growth inhibition rate; 0: no effect
Experimental: (§1) Rice field soil was loaded into a 1/1,000,000 ha pot. The seeds of Echinochloa, Scirpus juncoides, Bidens tripartite and Sagittaria trifolia were sowed and gently covered with soil, then left to stand still in greenhouse in the state of 0.5-1 cm of water storage. The tuber of Sagittaria trifolia was planted in the next day or 2 days later. It was kept at 3-4 cm of water storage thereafter. The weeds were treated by dripping the WP or SC water diluents prepared according to the common preparation method of the compounds of the present invention with pipette homogeneously to achieve specified effective amount when Echinochloa, Scirpus juncoides and Bidens tripartite reached 0.5 leaf stage and Sagittaria trifolia reached the time point of primary leaf stage.
(§2) The fertility condition of Echinochloa, Scirpus juncoides, Bidens tripartite and Sagittaria trifolia 14 days after the treatment of the compound of the invention and the fertility condition of rice 21 days after the treatment of the compound of the invention respectively with the naked eye.
(§3) Note: The seeds of barnyard grass, rushlike bulrush, arrowhead and beggartick are collected from Heilongjing Province of China. Tests indicate that the weeds are resistant to common application rate of pyrazosulfuron-ethyl.

Barnyard grass [2] = experiment: weed control effect in post emergence stage, greenhouse pot spray; assay type: in vivo; details: sprayed at 2-3 leaf stage, after 3 weeks
Experimental: (§4) The activity level standard of harmful plant damage (i.e. growth inhibition rate) is as follows: The above described growth control rate is fresh weight control rate. Monocotyledonous and dicotyledonous weed seeds and main crop seeds (i.e. wheat, corn, rice, soybean, cotton, oilseed, millet and Sorghum) were put into a plastic pot loaded with soil. Then covered with 0.5-2 cm soil, the seeds were allowed to grow in good greenhouse environment. The test plants were treated at 2-3 leaf stage 2-3 weeks after sowing. […] The solution was sprayed to the plants with a sprayer. Then the plants were cultured for 3 weeks in the greenhouse.

Flixweed = experiment: as above; assay type: in vivo; details: 16 g/mu, sprayed at 2-3 leaf stage, after 3 weeks
Experimental: as §4

rushlike bulrush = experiment: weed control effect in transplanted rice field (pot, water application); assay type: in vivo, Scirpus juncoides; details: 500 g a.i./ha, treated at 0.5 leaf stage, 14 days after treatment, naked eye, weed resistant to pyrazosulfuron-ethyl
Experimental: as §1, §2, §3

Beggartick = experiment: as above; assay type: in vivo, Bidens tripartite; details: 500 g a.i./ha, treated at 0.5 leaf stage, 14 days after treatment, naked eye, weed resistant to pyrazosulfuron-ethyl
Experimental: as §1, §2, §3

Arrowhead = experiment: as above; assay type: in vivo, Sagittaria trifolia; details: 500 g a.i./ha, treated at primary leaf stage, 14 days after treatment, naked eye, weed resistant to pyrazosulfuron-ethyl
Experimental: as §1, §2, §3

Rice = experiment: transplanted rice safety evaluation; assay type: in vivo; details: transplanted 3 leaf stage japonica rice, 500 g a.i./ha, treated 5 days after transplantation, 21 days after treatment, naked eye
Experimental: In addition, the rice field soil that loaded into the 1/1,000,000 ha pot was leveled to keep water storage at 3-4 cm depth. The 3 leaf stage rice (japonica rice) was transplanted at 3 cm of transplanting depth the next day. The compound of the present invention was treated by the same way after 5 days of transplantation.
as §2

Corn = experiment: post emergence stage greenhouse pot spray, corn safety; assay type: in vivo; details: 16 g/mu, sprayed at 2-3 leaf stage, after 3 weeks; note: key: 10: completely dead; above 90% growth inhibition rate; above 80% growth inhibition rate; above 70% growth inhibition rate; above 60% growth inhibition rate; above 50% growth inhibition rate; 4: above 30% growth inhibition rate; above 30% growth inhibition rate; above 20% growth inhibition rate; above 1-10% growth inhibition rate; 0: no effect
Experimental: as §4

Ning Jing 43 = experiment: post emergence stage greenhouse pot spray, rice safety; assay type: in vivo; parameters: key: 10: completely dead; above 90% growth inhibition rate; above 80% growth inhibition rate; above 70% growth inhibition rate; above 60% growth inhibition rate; above 50% growth inhibition rate; 4: above 30% growth inhibition rate; above 30% growth inhibition rate; above 20% growth inhibition rate; above 1-10% growth inhibition rate; 0: no effect; details: sprayed at 2-3 leaf stage, after 3 weeks
Experimental: as §4

Wheat = experiment: post emergence stage greenhouse pot spray, wheat safety; assay type: in vivo; details: 16 g/mu, sprayed at 2-3 leaf stage, after 3 weeks; note: key: 10: completely dead; above 90% growth inhibition rate; above 80% growth inhibition rate; above 70% growth inhibition rate; above 60% growth inhibition rate; above 50% growth inhibition rate; 4: above 30% growth inhibition rate; above 30% growth inhibition rate; above 20% growth inhibition rate; above 1-10% growth inhibition rate; 0: no effect
Experimental: as §4

Cc1cc(C)n(Cc2c(S(C)(=O)=O)ccc(C(=O)c3c(C4CC4)nn(C)c3O)c2Cl)n1 [Compound 13]
weed control effect (activity level), Barnyard grass (Barnyard grass [1]): 10
weed control effect (activity level), Barnyard grass (Barnyard grass [2]; 1 g/mu): 2 (above 20% growth inhibition rate)
weed control effect (activity level), Barnyard grass (Barnyard grass [2]; 2 g/mu): 2 (above 20% growth inhibition rate)
weed control effect (activity level), Barnyard grass (Barnyard grass [2]; 4 g/mu): 2 (above 20% growth inhibition rate)
weed control effect (activity level), Barnyard grass (Barnyard grass [2]; 8 g/mu): 5 (above 50% growth inhibition rate)
weed control effect (activity level), Barnyard grass (Barnyard grass [2]; 16 g/mu): 7 (above 70% growth inhibition rate)
weed control effect (activity level), Flixweed (Flixweed): 10
weed control effect (activity level), rushlike bulrush (rushlike bulrush): 9 (above 90% growth inhibition rate)
weed control effect (activity level), Beggartick (Beggartick): 9 (above 90% growth inhibition rate)
weed control effect (activity level), Arrowhead (Arrowhead): 9 (above 90% growth inhibition rate)

CCOC(=O)Oc1c(C(=O)c2ccc(S(C)(=O)=O)c(Cn3cc(C)cn3)c2Cl)c(C)nn1C [Compound 31]
weed control effect (activity level), Barnyard grass (Barnyard grass [1]): 10
damage (activity level), Rice (Rice): 1 (above 1-10% growth inhibition rate)
weed control effect (activity level), Barnyard grass (Barnyard grass [2]; 1 g/mu): 3 (above 30% growth inhibition rate)
weed control effect (activity level), Barnyard grass (Barnyard grass [2]; 2 g/mu): 5 (above 50% growth inhibition rate)
weed control effect (activity level), Barnyard grass (Barnyard grass [2]; 4 g/mu): 6 (above 60% growth inhibition rate)
weed control effect (activity level), Barnyard grass (Barnyard grass [2]; 8 g/mu): 8 (above 80% growth inhibition rate)
weed control effect (activity level), Barnyard grass (Barnyard grass [2]; 16 g/mu): 9 (above 90% growth inhibition rate)
weed control effect (activity level), Flixweed (Flixweed): 10
weed control effect (activity level), rushlike bulrush (rushlike bulrush): 10
damage (activity level), Corn (Corn): 0
damage (activity level), Ning Jing 43 (Ning Jing 43; 1 g/mu): 0
damage (activity level), Ning Jing 43 (Ning Jing 43; 2 g/mu): 0
damage (activity level), Ning Jing 43 (Ning Jing 43; 4 g/mu): 0
damage (activity level), Ning Jing 43 (Ning Jing 43; 8 g/mu): 0
damage (activity level), Ning Jing 43 (Ning Jing 43; 16 g/mu): 0
weed control effect (activity level), Beggartick (Beggartick): 10
weed control effect (activity level), Arrowhead (Arrowhead): 9 (above 90% growth inhibition rate)
damage (activity level), Wheat (Wheat): 0

Cc1cc(C)n(Cc2c(S(C)(=O)=O)ccc(C(=O)c3c(C)nn(C)c3OCC(=O)OC(C)(C)C)c2Cl)n1 [Compound 35]
weed control effect (activity level), Barnyard grass (Barnyard grass [1]): 10
weed control effect (activity level), Barnyard grass (Barnyard grass [2]; 1 g/mu): 3 (above 30% growth inhibition rate)
weed control effect (activity level), Barnyard grass (Barnyard grass [2]; 2 g/mu): 3 (above 30% growth inhibition rate)
weed control effect (activity level), Barnyard grass (Barnyard grass [2]; 4 g/mu): 4 (above 30% growth inhibition rate)
weed control effect (activity level), Barnyard grass (Barnyard grass [2]; 8 g/mu): 4 (above 30% growth inhibition rate)
weed control effect (activity level), Barnyard grass (Barnyard grass [2]; 16 g/mu): 5 (above 50% growth inhibition rate)
weed control effect (activity level), Flixweed (Flixweed): 10
weed control effect (activity level), rushlike bulrush (rushlike bulrush): 10
weed control effect (activity level), Beggartick (Beggartick): 10
weed control effect (activity level), Arrowhead (Arrowhead): 9 (above 90% growth inhibition rate)

Cc1ccc(S(=O)(=O)Oc2c(C(=O)c3ccc(S(C)(=O)=O)c(Cn4nc(C)cc4C)c3Cl)c(C)nn2C)cc1 [Compound 33]
weed control effect (activity level), Barnyard grass (Barnyard grass [1]): 10
damage (activity level), Rice (Rice): 1 (above 1-10% growth inhibition rate)
weed control effect (activity level), Barnyard grass (Barnyard grass [2]; 1 g/mu): 4 (above 30% growth inhibition rate)
weed control effect (activity level), Barnyard grass (Barnyard grass [2]; 2 g/mu): 6 (above 60% growth inhibition rate)
weed control effect (activity level), Barnyard grass (Barnyard grass [2]; 4 g/mu): 5 (above 50% growth inhibition rate)
weed control effect (activity level), Barnyard grass (Barnyard grass [2]; 8 g/mu): 7 (above 70% growth inhibition rate)
weed control effect (activity level), Barnyard grass (Barnyard grass [2]; 16 g/mu): 8 (above 80% growth inhibition rate)
weed control effect (activity level), Flixweed (Flixweed): 10
weed control effect (activity level), rushlike bulrush (rushlike bulrush): 10
damage (activity level), Corn (Corn): 0
damage (activity level), Ning Jing 43 (Ning Jing 43; 1 g/mu): 0
damage (activity level), Ning Jing 43 (Ning Jing 43; 2 g/mu): 0
damage (activity level), Ning Jing 43 (Ning Jing 43; 4 g/mu): 0
damage (activity level), Ning Jing 43 (Ning Jing 43; 8 g/mu): 0
damage (activity level), Ning Jing 43 (Ning Jing 43; 16 g/mu): 0
weed control effect (activity level), Beggartick (Beggartick): 10
weed control effect (activity level), Arrowhead (Arrowhead): 10
damage (activity level), Wheat (Wheat): 0

CCCCCOc1c(C(=O)c2ccc(S(C)(=O)=O)c(Cn3nc(C)cc3C)c2Cl)c(C)nn1C [Compound 38]
weed control effect (activity level), Barnyard grass (Barnyard grass [2]; 1 g/mu): 0
weed control effect (activity level), Barnyard grass (Barnyard grass [2]; 2 g/mu): 1 (above 1-10% growth inhibition rate)
weed control effect (activity level), Barnyard grass (Barnyard grass [2]; 4 g/mu): 1 (above 1-10% growth inhibition rate)
weed control effect (activity level), Barnyard grass (Barnyard grass [2]; 8 g/mu): 2 (above 20% growth inhibition rate)
weed control effect (activity level), Barnyard grass (Barnyard grass [2]; 16 g/mu): 2 (above 20% growth inhibition rate)
weed control effect (activity level), Flixweed (Flixweed): 2 (above 20% growth inhibition rate)

Cc1cc(C)n(Cc2c(S(C)(=O)=O)ccc(C(=O)c3c(C)nn(C)c3O)c2Cl)n1 [Compound 4]
weed control effect (activity level), Barnyard grass (Barnyard grass [1]): 10
weed control effect (activity level), Barnyard grass (Barnyard grass [2]; 1 g/mu): 3 (above 30% growth inhibition rate)
weed control effect (activity level), Barnyard grass (Barnyard grass [2]; 2 g/mu): 4 (above 30% growth inhibition rate)
weed control effect (activity level), Barnyard grass (Barnyard grass [2]; 4 g/mu): 5 (above 50% growth inhibition rate)
weed control effect (activity level), Barnyard grass (Barnyard grass [2]; 8 g/mu): 5 (above 50% growth inhibition rate)
weed control effect (activity level), Barnyard grass (Barnyard grass [2]; 16 g/mu): 7 (above 70% growth inhibition rate)
weed control effect (activity level), Flixweed (Flixweed): 10
weed control effect (activity level), rushlike bulrush (rushlike bulrush): 10
weed control effect (activity level), Beggartick (Beggartick): 9 (above 90% growth inhibition rate)
weed control effect (activity level), Arrowhead (Arrowhead): 9 (above 90% growth inhibition rate)

Cc1cnn(Cc2c(S(C)(=O)=O)ccc(C(=O)c3c(C4CC4)nn(C)c3O)c2Cl)c1 [Compound 12]
weed control effect (activity level), Barnyard grass (Barnyard grass [2]; 1 g/mu): 2 (above 20% growth inhibition rate)
weed control effect (activity level), Barnyard grass (Barnyard grass [2]; 2 g/mu): 4 (above 30% growth inhibition rate)
weed control effect (activity level), Barnyard grass (Barnyard grass [2]; 4 g/mu): 6 (above 60% growth inhibition rate)
weed control effect (activity level), Barnyard grass (Barnyard grass [2]; 8 g/mu): 7 (above 70% growth inhibition rate)
weed control effect (activity level), Barnyard grass (Barnyard grass [2]; 16 g/mu): 8 (above 80% growth inhibition rate)
weed control effect (activity level), Flixweed (Flixweed): 10

CCn1nc(C2CC2)c(C(=O)c2ccc(S(C)(=O)=O)c(Cn3cc(C)cn3)c2Cl)c1O [Compound 22]
weed control effect (activity level), Barnyard grass (Barnyard grass [2]; 1 g/mu): 2 (above 20% growth inhibition rate)
weed control effect (activity level), Barnyard grass (Barnyard grass [2]; 2 g/mu): 4 (above 30% growth inhibition rate)
weed control effect (activity level), Barnyard grass (Barnyard grass [2]; 4 g/mu): 6 (above 60% growth inhibition rate)
weed control effect (activity level), Barnyard grass (Barnyard grass [2]; 8 g/mu): 6 (above 60% growth inhibition rate)
weed control effect (activity level), Barnyard grass (Barnyard grass [2]; 16 g/mu): 10
weed control effect (activity level), Flixweed (Flixweed): 10

Cc1cnn(Cc2c(S(C)(=O)=O)ccc(C(=O)c3c(C)nn(C)c3O)c2Cl)c1 [Compound 1]
weed control effect (activity level), Barnyard grass (Barnyard grass [1]): 10
weed control effect (activity level), Barnyard grass (Barnyard grass [2]; 1 g/mu): 4 (above 30% growth inhibition rate)
weed control effect (activity level), Barnyard grass (Barnyard grass [2]; 2 g/mu): 7 (above 70% growth inhibition rate)
weed control effect (activity level), Barnyard grass (Barnyard grass [2]; 4 g/mu): 8 (above 80% growth inhibition rate)
weed control effect (activity level), Barnyard grass (Barnyard grass [2]; 8 g/mu): 10
weed control effect (activity level), Barnyard grass (Barnyard grass [2]; 16 g/mu): 10
weed control effect (activity level), Flixweed (Flixweed): 10
weed control effect (activity level), rushlike bulrush (rushlike bulrush): 10
weed control effect (activity level), Beggartick (Beggartick): 9 (above 90% growth inhibition rate)
weed control effect (activity level), Arrowhead (Arrowhead): 8 (above 80% growth inhibition rate)

CCc1nn(C)c(O)c1C(=O)c1ccc(S(C)(=O)=O)c(Cn2cc(Cl)cn2)c1Cl [Compound 5]
weed control effect (activity level), Barnyard grass (Barnyard grass [1]): 10
weed control effect (activity level), Barnyard grass (Barnyard grass [2]; 1 g/mu): 2 (above 20% growth inhibition rate)
weed control effect (activity level), Barnyard grass (Barnyard grass [2]; 2 g/mu): 2 (above 20% growth inhibition rate)
weed control effect (activity level), Barnyard grass (Barnyard grass [2]; 4 g/mu): 4 (above 30% growth inhibition rate)
weed control effect (activity level), Barnyard grass (Barnyard grass [2]; 8 g/mu): 7 (above 70% growth inhibition rate)
weed control effect (activity level), Barnyard grass (Barnyard grass [2]; 16 g/mu): 8 (above 80% growth inhibition rate)
weed control effect (activity level), Flixweed (Flixweed): 10
weed control effect (activity level), rushlike bulrush (rushlike bulrush): 10
weed control effect (activity level), Beggartick (Beggartick): 10
weed control effect (activity level), Arrowhead (Arrowhead): 10

Cn1ncc(C(=O)c2ccc(S(C)(=O)=O)c(Cn3cc(Cl)cn3)c2Cl)c1O [Compound 10]
weed control effect (activity level), Barnyard grass (Barnyard grass [2]; 1 g/mu): 2 (above 20% growth inhibition rate)
weed control effect (activity level), Barnyard grass (Barnyard grass [2]; 2 g/mu): 4 (above 30% growth inhibition rate)
weed control effect (activity level), Barnyard grass (Barnyard grass [2]; 4 g/mu): 4 (above 30% growth inhibition rate)
weed control effect (activity level), Barnyard grass (Barnyard grass [2]; 8 g/mu): 7 (above 70% growth inhibition rate)
weed control effect (activity level), Barnyard grass (Barnyard grass [2]; 16 g/mu): 8 (above 80% growth inhibition rate)
weed control effect (activity level), Flixweed (Flixweed): 10
